Source: patent US9447157B2, “Nitration shielding peptides and methods of use thereof” (Augusta University Research Institute, Inc., priority 2013, dated 2016)

Columns and labels:
RhoA [1] = molecular target: T1, RhoA (Homo sapiens, UniProt P61586, Y34F); experiment: Stopped-flow kinetic analysis of mant-GDP/mant-GTP binding to RhoA; conditions: stop-flow analysis, purified Y34F RhoA
T1 construct: polyHis (6His); made in house; host or cells: Escherichia coli BL21
Description: RhoA was treated with authentic peroxynitrite (500 μM, 30 min) to induce tyrosine nitration in buffered solution. For kinetic analyses, 2 μM of either mart-GTP or -GDP was mixed with RhoA (0.1 μM) in a stopped-flow instrument (SX-20, […]). Increases in fluorescent intensity mant-nucleotide binding to RhoA were then measured using excitation 350 nm and cutoff filter 395 nm for 0.2-1 second. Acquired kinetic curves for 3-5 experiments were averaged and fitted using the Pro-kineticist software to determine observed binding constants.
To test the validity of the MD data kinetic studies were performed. His-tagged human RhoA construct was expressed in the Escherichia con BL21 strain. First, the bacterial lysate was purified by 6His-tag affinity on a Ni-NTA column. Second, the proteins in the elution fraction from the affinity purification were separated by size-exclusion chromatography (FIG. 11). The fraction containing RhoA was identified both by Coomassie blue staining and Western blot analysis. The recombinant purified RhoA was subjected to rapid flow kinetics to evaluate GDP and GTP binding using fluorescently labeled guanine nucleotides. Peroxynitrite decreases GDP binding to purified RhoA. Human recombinant RhoA was exposed to authentic peroxynitrite (100 μM, 30 min) on ice. […]

[2] = tested on: human lung microvascular endothelial cells (HLMVEC); experiment: Endothelial monolayer resistance (ECIS, TER) in LPS-challenged HLMVEC; type: cell-based; conditions: HLMVEC, peptide 100 ng/ml 30 min, then LPS 1 EU/ml
Description: The electrical resistance of the endothelial cell monolayer was measured with the electrical cell impedance sensor (ECIS) technique. In this system, the cells are cultured on gold plated electrodes. The change in resistance across the monolayer is measured through an amplifier attached to the arrays. Each study was performed when the resistance reached a plateau. The data was normalized to the initial voltage and plotted as a normalized resistance.
To examine if protein nitration by peroxynitrite is a contributing factor in endothelial barrier disruption in response to LPS, transendothelial resistance (TER) was measured in HLMVEC in the presence or absence of the peroxynitrite scavenger, MnTmPyp. HLMVEC were challenged with LPS (1 EU/ml) in the presence or absence of the peroxynitrite scavenger, MnTMPyP (25 μM).
To evaluate the role played by NOS in the barrier dysfunction, HLMVEC were exposed to LPS in the presence or absence of ETU (a non-specific NOS inhibitor) or 1400W (to inhibit iNOS). HLMVEC were challenged with LPS (1 EU/ml) in the presence or absence of the general NOS inhibitor, ETU (200 μM) or the iNOS specific inhibitor, 1400W (100 μM). The LPS-mediated decrease in TER was attenuated in the presence of ETU, but not 1400W (FIG. 1B). The important role of eNOS was then confirmed using a siRNA approach. HLMVEC were transiently transfected with a siRNA against eNOS or a scrambled control siRNA. After 48 h, there was a significant knockdown of eNOS protein levels (50%), as determined by Western blotting. Reducing eNOS protein levels preserved HLMVEC barrier function when challenged with LPS (FIG. 1C).

HLMVEC [3] = experiment: Total protein nitration (3-NT/β-actin) in LPS-treated HLMVEC; type: cell-based, human; conditions: peptide 100 ng/ml 30 min, then LPS 1 EU/ml
Description: Cell extracts were separated on 4-20% gels and electrophoretically transferred to PVDF membrane (Bio-Rad), then blocked with 5% nonfat dry milk in Tris-buffered saline. The membranes were probed with antibodies to RhoA (Cell Signaling), eNOS (BD), iNOS (Cell Signaling), or 3-Nitrotyrosine (Calbiochem). Reactive bands were visualized using chemi-luminescence (Pierce) on a Kodak 440CF image station. Band intensity was quantified using Kodak 1D image processing software. Protein loading was normalized by re-probing with mouse anti-β-actin.

HLMVEC [4] = experiment: Gaps formation between cells (ZO-1 immunofluorescence) in HLMVEC; type: cell-based, human; conditions: peptide 100 ng/ml, LPS 1 EU/ml
Description: HLMVEC were grown on gelatin-coated coverslips and exposed to LPS in the presence or absence of the NipR1 peptides. The cells were permeabilized and blocked for 1 h at 25° C. in 5% BSA blocking buffer. A primary antibody against ZO-1 (Invitrogen, 1:100 dilution) was added. Plates were incubated overnight at 4° C. then a secondary antibody (AlexaFluor) was added for 2 h. Slides were examined with Zeiss immunofluorescence microscope Axio Observer D1. The gaps between the cells were calculated using Zeiss Axio Observer software.

RhoA [5] = molecular target: T2, RhoA (Mus musculus, UniProt Q9QUI0); experiment: RhoA activity, nitration and protein in lungs of LPS treated mice; type: in vivo
T2 construct: from tissue; host or cells: mouse lung (male C57Bl/6)
T2 sequence (Q9QUI0 whole entry): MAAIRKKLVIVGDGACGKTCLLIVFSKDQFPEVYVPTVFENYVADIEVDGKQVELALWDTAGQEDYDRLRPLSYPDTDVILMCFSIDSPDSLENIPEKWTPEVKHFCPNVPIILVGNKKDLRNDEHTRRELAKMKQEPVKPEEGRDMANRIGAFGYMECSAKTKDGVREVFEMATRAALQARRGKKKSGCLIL
Description: The Committee on Animal Research at Georgia Regents University approved all animal protocols and procedures. Stock solutions of Escherichia coli LPS (0111:B4) were prepared in saline. […] Mice were examined 24 h after LPS treatment. At the end of the treatment lungs were flushed with 3 ml of ice-cold PBS (5 mM EDTA), excised, dipped in saline and blotted dry. A portion of the lung was quickly snap-frozen in liquid nitrogen, crushed to powder in a pre-chilled mortar and stored at -80° C. The remaining lung tissue was stored at -80° C. […] After 24 h, mice were sacrificed and lung tissue was obtained to determine RhoA activity and RhoA nitration, LPS induced RhoA activation in the mouse lung as in HLMVEC (FIG. 7A). […] Total RhoA protein levels and basal RhoA nitration were measured. […] Likewise, basal RhoA nitration levels (FIG. 7D) were unchanged.

LPS treated mice = experiment: Mouse model of ALI induced by intra-tracheal LPS: BALF, weight, histopathology, MPO, lung mechanics, cytokines; type: in vivo
Description: The Committee on Animal Research at Georgia Regents University approved all animal protocols and procedures. Stock solutions of Escherichia coli LPS (0111:B4) were prepared in saline. […] Mice were examined 24 h after LPS treatment. At the end of the treatment lungs were flushed with 3 ml of ice-cold PBS (5 mM EDTA), excised, dipped in saline and blotted dry. A portion of the lung was quickly snap-frozen in liquid nitrogen, crushed to powder in a pre-chilled mortar and stored at −80° C. The remaining lung tissue was stored at −80° C.
Isolation of Bronchoalveolar Lavage Fluid (BALF) BALF was obtained by instilling and withdrawing 1 mL of PBS via a tracheal cannula. Part of the solution was used to determine protein levels in the BALF. In addition, cells were pelleted at 2,500 g for 10 min and resuspended in water for 15 sec to lyse red blood cells. Leukocytes were resuspended in 1 ml PBS, and total cell count determined using a haemocytometer.
Mice were anesthetized with pentobarbital (90 mg/kg, i.p.), tracheostomized with a metal 1.2 mm (internal diameter) cannula and connected to a Flexi Vent (Scireq Inc) ventilator. Ventilation was initiated at a tidal volume of 10 ml/kg and a rate of 150/min. A TLC maneuver was performed, followed by 15 sec later, by a sinusoidal 1 Hz oscillation. Subsequently, an 8 sec forced oscillatory signal (0.5-19.6 Hz) was applied, the mechanical input impedance of the respiratory system was calculated, and a model containing a constant phase tissue compartment was fit to input impedance in order to evaluate tissue elastance. Dynamic pressure-volume maneuvers were performed by step-wise increasing the airway pressure to 30 cm H2O and then reversing the process.
Lungs were inflated with 10% formalin under 15 cm H2O pressure and immersed in the same solution before tissue processing into paraffin embedded blocks and 4 μm sections were then cut stained with H&E. Histopathological assessment was conducted by two researchers who were masked to treatment group. H&E stained sections were scored for the presence of neutrophil in the alveolar space, neutrophils in the interstitial space, the existence of hyaline membranes, proteinaceous debris filling the airspaces and alveolar septal thickening as described previously (Matute-Bello, et al., Am. J. Respir. Cell Mol. Biol. 44, 725-738 (2011)).
Sections (5 μm) were cut from paraffin blocks and mounted on treated slides (Superfrost+). Slides were air dried overnight, placed in a 60° C. oven for 30 min, deparaffinized in xylene and run through graded alcohol to distilled water. Endogenous peroxidase was quenched with 0.3% H2O2 for 5 min, followed by two rinses with distilled water. Slides were pretreated with Target pH 6, (Dako), rinsed in distilled water, incubated in Power Block (Biogenex), rinsed in distilled water, placed in PBS for 5 min, incubated with primary antimyeloperoxidase (Cappel, 1:2000 dilution) for 30 min at 25° C. After two rinses in PBS, slides were incubated with a peroxidase-labeled polymer conjugated to goat anti-rabbit secondary IgG (Envision+, Dako) for 30 min and rinsed in PBS. Bound antibody was detected with the DAB+ substrate kit, (Dako). Hematoxylin was used as a counter-stain. MPO-stained slides were then evaluated by scoring (0-4) for the presence of neutrophils within the alveolar walls.
Analytes (pg/mL) were assessed with the MCYTOMAG70K assay (EMD Millipore) as previously described (Lucas, R., et al., Proc. Natl. Acad. Sci. USA 109, 2084-2089 (2012)).
Mice were used to perform additional physiological, biochemical and morphological studies to evaluate the efficacy of the NipR1 peptide in attenuating symptoms of ALI. […] After 24 h, mice were anesthetized and BALF was collected. Measurements of lung mechanics were also carried out.

[6] = peptide i.p. 0.1 mg/kg 6 h prior to i.t. LPS 2 mg/kg, 24 h

T1 sequence (P61586 whole entry Y34F): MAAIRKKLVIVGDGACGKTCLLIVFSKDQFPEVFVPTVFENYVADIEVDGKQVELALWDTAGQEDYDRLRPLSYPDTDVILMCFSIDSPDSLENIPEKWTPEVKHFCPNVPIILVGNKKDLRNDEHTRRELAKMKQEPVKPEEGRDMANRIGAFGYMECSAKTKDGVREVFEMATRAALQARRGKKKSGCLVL

For “Y34FRhoA: purified RhoA mutant protein in which the tyrosine residue (Y) was replaced by phenylalanine”, the “Binding of GTP (mant-GTP) to RhoA mutant” value (RhoA [1]) was “No binding”.

“HRKKRRQRRRQFPVYVPTVF (SEQ ID NO:25) (Human immunodeficiency virus) [NipR1]” was tested, and the “Attenuation of LPS-mediated disruption of the HLMVEC barrier (preservation of TER)” value [2] was “attenuated”, the “Increase in total protein nitration induced by LPS” value (HLMVEC [3]) was “unaffected” and the “Cell-cell gaps after LPS” value (HLMVEC [4]) was “reduction”. For the same substance, the “Basal RhoA nitration levels in mouse lung” value (RhoA [5]; peptide alone, no LPS) was “unchanged”, the “Attenuation of LPS-mediated increase in RhoA activity in the mouse lung” value (RhoA [5]; [6]) was “attenuated” and the “Attenuation of LPS-mediated increase in RhoA nitration in the mouse lung” value (RhoA [5]; [6]) was “attenuated”. For the same substance, the “Total RhoA protein levels in mouse lung” value (RhoA [5]; peptide i.p. 0.1 mg/kg, with or without LPS) was “Neither peptide nor LPS treatment altered”, the “LPS-mediated induction of multiple pro-inflammatory cytokines and chemokines in BALF” value (LPS treated mice; LPS + NipR1 vs LPS, MCYTOMAG-70K assay) was “attenuated” and the “Attenuation of LPS induced increase in MPO staining in the alveolar space” value (LPS treated mice; [6]) was “attenuated”. The “Attenuation of LPS-induced increase in total white blood cell counts in BALF” value (LPS treated mice; [6]) was “attenuated”, the “MPO activity in lung homogenates after LPS” value (LPS treated mice; [6]) was “attenuated” and the “Prevention of LPS-induced reduction in lung elastance (dynamic pressure-volume relationships)” value (LPS treated mice; [6]) was “prevented”. The “Prevention of weight loss associated with LPS exposure” value (LPS treated mice; [6]) was “able to prevent”, the “Reduction of LPS-induced histopathological changes in the lungs (H&E)” value (LPS treated mice; [6]) was “reduced” and the “Inflammatory response induced by LPS” value (LPS treated mice; peptide i.p. prior to i.t. LPS) was “reduced”.
